Earlier results in patent US10736894B2, “Methods of treating developmental syndromes with PDE10A inhibitors” (Ovid Therapeutics Inc., priority 2018, dated 2020).

How the values were obtained:
[1] = 100 mg dose
[2] = single dose 3-1000 mg, volunteers

For `COc1cn(-c2ccc(-n3cccn3)cc2F)nc(-c2ccnn2-c2ccccc2)c1=O` [1-[2-fluoro-4-(1H-pyrazol-1-yl)phenyl]-5-methoxy-3-(1-phenyl-1H-pyrazol-5-yl)-pyridazin-4(1H)-one], the “deaths, serious adverse events, discontinuations due to adverse events” value (all dose cohorts 3-1000 mg) is given as “no deaths, serious adverse events, or discontinuations due to adverse events”, the “drug-related adverse event: orthostatic hypotension” value [2] is given as 9.1% and the “drug-related adverse event: orthostatic tachycardia” value [2] is given as 19.7%. The “drug-related adverse event: somnolence” value [2] was 33.3%, the oral bioavailability ([1]; fed conditions versus fasting) was “increased oral bioavailability” and the Tmax ([1]; fed conditions) was 6 h.
